Like-named read-outs stand apart in the source and are kept apart here.
Experiments:
[1] = Solubility determinations in SIF buffers (FaSSIF, FeSSIF, FaSSGF); assay type: physicochemical
Description: At this stage ca. 1 g of each front-runner salt form was prepared. Salt forms that offered significant solubility and stability advantages over the non-ionized API were prioritized. […] Scale Up
The solubility of the salts below was determined in FaSSIF, FeSSIF and FaSSGF by reference to the calibration curve of amorphous compound 1.
Separate portions of compound 1 were weighed out into aluminum boats and were charged to the relevant volumetric flasks. Solutions were made to volume with 1 to 1 (v/v) acetonitrile/purified water to give calibrants of known API concentrations and analyzed by HPLC, suitable to determine the concentration of compound 1 free base in the SIF buffer solubility study.
Each sample (150 mg) was suspended in the relevant SIF buffer (5.0 ml), to give a concentration of 30 mg/ml and maintain at 37° C. for 24 h. The pH was adjusted using 1 M HCl or 1 M NaOH, to ensure that the suspension remains in range.
Sample (1 ml) of the well-stirred representative suspensions was obtained at 1 h, 3 h, 6 h and 24 h and the pH was recorded. The pH of the bulk suspension was re-adjusted when necessary. The obtained sample from each vial was centrifuged, and the supernatant was analysed by HPLC (note, the analyte was diluted, when outside of the calibration range); XRPD analysis was performed on the wet sample pellet for evidence of form change, as well as on the oven-dried pellet (undervacuum at 40° C.).

[2] = Dynamic vapor sorption (DVS); assay type: physicochemical
Description: There are two main methods to use, one is by time where the equilibration is given by a fixed time, i.e., 1 hour per step and is appropriate for an unknown phase. The second, is by mass per time unit (dm/dt) of 0.002%/min; that is when the difference in weight is less than 0.002%, the instrument moves onto the next step. For unknown hygroscopicity, the method by time is indicated because it gives an idea of water affinity without wasting much time. Ideally the analyses are repeated using the mass equilibration method to confirm. By experience for hygroscopic samples, the analysis can continue for days. For non-hygroscopic samples the difference between the two methods may not be significant.
Consequently, amorphous batch 1 was analyzed by the fixed time method and once compound 1 fumarate crystalline polymorphic Form A was generated the analyses was repeated as mass per unit time equilibrated @dm/dt ([…]) and is given below (refer to FIG. 12).
(§1) The moisture sorption properties of the feed API were analysed by DVS Intrinsic instrument (Surface Measurement System). Approximately 20 to 50 mg of API was weighed onto an aluminium pan and loaded into the instrument equilibrated at 25° C. The sample was equilibrated under a dry atmosphere (0% relative humidity) for 60 minutes, before increasing the humidity from 0% to 30% at 5%4 step increment and from 30% to 90% at 10% step increment. A desorption cycle was also applied from 90% to 30% (10% step decrement) and from 30% to 0% (5% step decrement). A rate of change in mass per time unit (dm/dt) of 0.002%/min was set as the equilibrium parameter. Kinetic and isotherm graphs were calculated.
Specimens were equilibrated at 0% RH for 60 min, prior to DVS analyses (stepped increment % RH up to 90% RH and stepped decrement % RH down to 0% RH.
as §1, with “5%” for “5%4”

[3] = assay type: physicochemical
Description: Equilibrium Humidity Evaluation (40° C./75% RH for 10 Days)
100 mg portions of compound 1 salts (for inputs see table below) were placed in the relevant open vials. The powders were finely divided and distributed evenly over the base of the vial, such that equal material coverage across the panel was observed. These samples were then maintained 40°C. under 75% RH. The samples were sub-sampled at intervals of 5 and 10 days and analysed by ^1H NMR, HPLC, XRPD, DSC, TGA and PLM, for evidence of phase change or chemical degradation (FIG. 269-297).

Compound: COc1ccc2c(ccn2C[C@@H](C)N(C)C)c1.O=C(O)/C=C/C(=O)O [Compound 1 · Fumarate]
- Solubility ([1]; FaSSGF (ph 1.6), t = 1 h@37° C.): >30 mg/mL
- Solubility ([1]; FaSSGF (ph 1.6), t = 3 h@37° C.): >30 mg/mL
- Solubility ([1]; FaSSGF (ph 1.6), t = 6 h@37° C.): >30 mg/mL
- Solubility ([1]; FaSSGF (ph 1.6), t = 24 h @37° C.): >30 mg/mL
- Solubility ([1]; FaSSIF (ph 6.5), t = 1 h@37° C.): >30 mg/mL
- Solubility ([1]; FaSSIF (ph 6.5), t = 3 h@37° C.): >30 mg/mL
- Solubility ([1]; FaSSIF (ph 6.5), t = 6 h@37° C.): >30 mg/mL
- Solubility ([1]; FaSSIF (ph 6.5), t = 24 h @37° C.): >30 mg/mL
- Solubility ([1]; FeSSIF (ph 5.0), t = 1 h@37° C.): >30 mg/mL
- Solubility ([1]; FeSSIF (ph 5.0), t = 3 h@37° C.): >30 mg/mL
- Solubility ([1]; FeSSIF (ph 5.0), t = 6 h@37° C.): >30 mg/mL
- Solubility ([1]; FeSSIF (ph 5.0), t = 24 h @37° C.): >30 mg/mL

Compound: COc1ccc2c(ccn2C[C@@H](C)N(C)C)c1.Cl [Compound 1 HCl (Form A)]
- DVS 0 to 90 to 0% RH (dm/dt <0.002%) ([2]; 0.0% RH, sorption): DVS 0 to 90 to 0% RH (dm/dt <0.002%): 0.0 (0.00%), 5.0 (0.00%),
- DVS 0 to 90 to 0% RH (dm/dt <0.002%) ([2]; 5.0% RH, desorption): 0.03%
- DVS 0 to 90 to 0% RH (dm/dt <0.002%) ([2]; 5.0% RH, sorption): DVS 0 to 90 to 0% RH (dm/dt <0.002%): 0.0 (0.00%), 5.0 (0.00%),
- DVS 0 to 90 to 0% RH (dm/dt <0.002%) ([2]; 10.0% RH, desorption): 0.04%
- DVS 0 to 90 to 0% RH (dm/dt <0.002%) ([2]; 10.0% RH, sorption): 0.02%
- DVS 0 to 90 to 0% RH (dm/dt <0.002%) ([2]; 15.0% RH, desorption): 0.05%
- DVS 0 to 90 to 0% RH (dm/dt <0.002%) ([2]; 15.0% RH, sorption): 0.02%
- DVS 0 to 90 to 0% RH (dm/dt <0.002%) ([2]; 20.0% RH, desorption): 0.06%
- DVS 0 to 90 to 0% RH (dm/dt <0.002%) ([2]; 20.0% RH, sorption): 0.03%
- DVS 0 to 90 to 0% RH (dm/dt <0.002%) ([2]; 25.0% RH, desorption): 0.07%
- DVS 0 to 90 to 0% RH (dm/dt <0.002%) ([2]; 25.0% RH, sorption): 0.04%
- DVS 0 to 90 to 0% RH (dm/dt <0.002%) ([2]; 30.0% RH, desorption): 0.09%
- DVS 0 to 90 to 0% RH (dm/dt <0.002%) ([2]; 30.0% RH, sorption): 0.05%
- DVS 0 to 90 to 0% RH (dm/dt <0.002%) ([2]; 40.0% RH, desorption): 0.10%
- DVS 0 to 90 to 0% RH (dm/dt <0.002%) ([2]; 40.0% RH, sorption): 0.07%
- DVS 0 to 90 to 0% RH (dm/dt <0.002%) ([2]; 50.0% RH, desorption): 0.14%
- DVS 0 to 90 to 0% RH (dm/dt <0.002%) ([2]; 50.0% RH, sorption): 0.10%
- DVS 0 to 90 to 0% RH (dm/dt <0.002%) ([2]; 60.0% RH, desorption): 0.17%
- DVS 0 to 90 to 0% RH (dm/dt <0.002%) ([2]; 60.0% RH, sorption): 0.14%
- DVS 0 to 90 to 0% RH (dm/dt <0.002%) ([2]; 70.0% RH, desorption): 0.22%
- DVS 0 to 90 to 0% RH (dm/dt <0.002%) ([2]; 70.0% RH, sorption): 0.19%
- DVS 0 to 90 to 0% RH (dm/dt <0.002%) ([2]; 80.0% RH, desorption): 0.29%
- DVS 0 to 90 to 0% RH (dm/dt <0.002%) ([2]; 80.0% RH, sorption): 0.26%
- DVS 0 to 90 to 0% RH (dm/dt <0.002%) ([2]; 90.0% RH, desorption): 0.46%
- DVS 0 to 90 to 0% RH (dm/dt <0.002%) ([2]; 90.0% RH, sorption): 0.46%

Compound: COc1ccc2c(ccn2C[C@@H](C)N(C)C)c1.O=C(O)/C=C\C(=O)O [Maleate salt]
- HPLC peak RRT 0.93 ([3]; salt before storage (t = 0)): 0.03
- HPLC peak RRT 0.98 ([3]; salt before storage (t = 0)): 0.06
- HPLC peak RRT 1.00 (reference peak) ([3]; salt before storage (t = 0)): 99.22
- HPLC peak RRT 1.10 ([3]; salt before storage (t = 0)): 0.28
- HPLC peak RRT 1.13 ([3]; salt before storage (t = 0)): 0.14
- HPLC peak RRT 1.17 ([3]; salt before storage (t = 0)): 0.02
- HPLC peak RRT 1.18 ([3]; salt before storage (t = 0)): 0.03
- HPLC peak RRT 1.19 ([3]; salt before storage (t = 0)): 0.08
- HPLC peak RRT 1.25 ([3]; salt before storage (t = 0)): 0.03
- HPLC peak RRT 1.34 ([3]; salt before storage (t = 0)): 0.11
- HPLC peak RRT 0.84 ([3]; t = 5 d at 75% RH at 40° C.): 0.31
- HPLC peak RRT 0.93 ([3]; t = 5 d at 75% RH at 40° C.): 0.05
- HPLC peak RRT 0.98 ([3]; t = 5 d at 75% RH at 40° C.): 0.03
- HPLC peak RRT 1.00 (reference peak) ([3]; t = 5 d at 75% RH at 40° C.): 99.09
- HPLC peak RRT 1.13 ([3]; t = 5 d at 75% RH at 40° C.): 0.21
- HPLC peak RRT 1.19 ([3]; t = 5 d at 75% RH at 40° C.): 0.10
- HPLC peak RRT 1.34 ([3]; t = 5 d at 75% RH at 40° C.): 0.22
- HPLC peak RRT 0.84 ([3]; t = 10 d at 75% RH at 40° C.): 0.65
- HPLC peak RRT 0.93 ([3]; t = 10 d at 75% RH at 40° C.): 0.06
- HPLC peak RRT 0.98 ([3]; t = 10 d at 75% RH at 40° C.): 0.05
- HPLC peak RRT 1.00 (reference peak) ([3]; t = 10 d at 75% RH at 40° C.): 98.30
- HPLC peak RRT 1.13 ([3]; t = 10 d at 75% RH at 40° C.): 0.33
- HPLC peak RRT 1.19 ([3]; t = 10 d at 75% RH at 40° C.): 0.09
- HPLC peak RRT 1.22 ([3]; t = 10 d at 75% RH at 40° C.): 0.09
- HPLC peak RRT 1.25 ([3]; t = 10 d at 75% RH at 40° C.): 0.02
- HPLC peak RRT 1.26 ([3]; t = 10 d at 75% RH at 40° C.): 0.06
- HPLC peak RRT 1.28 ([3]; t = 10 d at 75% RH at 40° C.): 0.05
- HPLC peak RRT 1.32 ([3]; t = 10 d at 75% RH at 40° C.): 0.10
- HPLC peak RRT 1.34 ([3]; t = 10 d at 75% RH at 40° C.): 0.19

Reference: patent publication US12319652B2, “Salts and solid forms of (R)-1-(5-methoxy-1H-indol-1-yl)-N,N-dimethylpropan-2-amine” (priority 2021, dated 2025)
